# Test results as given in publication PMC6856805, “Environmental Risk Assessment for the Active Pharmaceutical Ingredient Mycophenolic Acid in European Surface Waters” (Environmental Toxicology and Chemistry, 2019).
# “And” between values parts separate entries of the source, which are not always exact repeats. Identical values can stand only once.
# How the values were obtained:
# Danio rerio = test: Fish partial life cycle test, OECD 210 early life stage phase (F1); format: in vivo
# Description: At the highest tested concentration of 0.1 mg MPA/L nominal concentration (73 µg/L GMMC), only 2 of 75 hatched fish survived until the end of the test, showing that the test concentration range was well chosen. The most sensitive endpoints in this partial life cycle test were survival and growth in terms of length and mass of the young F1 fish; the effects were comparatively small but statistically significant at p = 0.05. In contrast, the F0 generation was impacted to a lesser extent.
# In view of the mammalian mutagenicity and reprotoxicity, a fish partial life-cycle test (PLC; an OECD 229 short-term reproduction test followed by an OECD 210 early-life-stage test) was performed by ECT Oekotoxikologie under GLP with a series of concentrations of MPA in a flow-through setting with the zebrafish Danio rerio (Gilberg & Chambers 2018). Briefly, mature fish (F0 generation) in breeding groups of 14 fish were exposed to four concentrations of the test item (0.0005, 0.0029, 0.0171 and 0.100 mg MPA/L), in fish media as well as to controls without the test item, in two replicates per treatment including controls, for 23 days in a 14-hours light to 10-hours dark photoperiod (OECD 229 phase). During this time period, reproduction parameters (survival of parents, fecundity, e.g., number of eggs, fertility and embryo viability/hatchability) of zebrafish exposed to the test item were assessed in comparison with the controls to determine the lowest observed effect concentration (LOEC) and the NOEC. After 23 days, newly fertilised eggs of the F1 generation were collected and exposed to the corresponding series of test item concentrations, 20 eggs in four replicates each per treatment including controls, until 30 days post-hatch (OECD 210 phase). Lethal and sublethal effects of the test item on eggs, larvae and juvenile fish exposed to the test item were assessed in comparison with controls to determine the LOEC and the NOEC. Samples were taken and analysed by LC–MS/MS (Supplemental Information) and the GMMC for the concentrations determined. Statistical check were made using Probit analyses, Weibull analyses, 2- and 3-parameter normal CDF, Shapiro-Wilk’s test on normal distribution, Levene’s test on variance homogeneity, Fisher's Exact Binomial test, Chi² 2×2 Table Test, Welsh t-test, Step-down Cochran-Armitage test Procedure, Williams Multiple Sequential t-test Procedure and Dunnett`s Multiple t-test Procedure.
# [1] = Dissociation constant (pKa) by titration; format: physicochemical; settings: 25 ± 2 °C
# Excerpt: Syntex derived many basic physicochemical properties for both MPM and MPA in the early 1990s. The results for MPA are mostly given in the present study.
# [2] = Derivation of predicted no-effect concentrations (PNEC) for STPs and surface water
# Description: The surface (fresh) water PNECSW was derived in 2 ways, from the lowest chronic NOEC on the one hand and from the lowest chronic 10% effect concentration (EC10) on the other, from (sub)chronic tests with fish, daphnids, green algae, and cyanobacteria (for the latter 2 the NOErC/ErC10 for growth rate [r] was used), using an assessment factor of 10 (Committee for Medicinal Products for Human Use 2015).
smiles,measurement,setting,value
"COc1c(C)c2c(c(O)c1CC=C(C)CCC(=O)O)C(=O)OC2 [MPA, 6‐(1,3‐dihydro‐4‐hydroxy‐6‐methoxy‐7‐methyl‐3‐oxo‐5‐isobenzofuranyl)‐4‐methyl‐4‐hexenoic acid]",hatched fish surviving until the end of the test,Danio rerio; 0.1 mg MPA/L nominal (73 µg/L GMMC),2 of 75
same,"EC10, hatching success",Danio rerio; 34 d phase,> 73 µg GMMC MPA/L
same,"NOEC, hatching success","Danio rerio; 34 d phase, GMMC",73 µg/L
same,lowest EC10,"Danio rerio; Danio rerio, in vivo, 57 d",5.8 µg MPA/L
same,overall NOEC for all endpoints in both F0 and F1 generations,"Danio rerio; Danio rerio, in vivo, 57 d",1.32 µg MPA/L
same,"EC10, posthatch success (survival) and number of healthy fish","Danio rerio; F1, GMMC",5.8 µg MPA/L
same,"NOEC, posthatch success (survival) and number of healthy fish","Danio rerio; F1, GMMC",10.9 µg MPA/L
same,"EC10, length of the surviving F1 fish",Danio rerio; GMMC,31.9 µg MPA/L
same,"EC10, wet weight of the surviving F1 fish",Danio rerio; GMMC,10.6 µg MPA/L
same,"NOEC, length of the surviving F1 fish",Danio rerio; GMMC,1.32 µg/L
same,"NOEC, wet weight of the surviving F1 fish",Danio rerio; GMMC,1.32 µg/L
same,"pK a, carboxylic acid",[1],4.58
same,"pK a, phenolic",[1],8.045
same,PNECEC10 (aquatic),"[2]; fish EC10, assessment factor of 10",0.58 µg MPA/L and 0.580 µg MPA/L
same,PNECNOEC (aquatic),"[2]; fish NOEC, assessment factor of 10",0.132 µg MPA/L
